# Measurements from patent publication US20100285095A1 (priority 2009, published 2010).
# Several values for one entry are separate records, joined by “and”; a condition that tells them apart may be missing. Identical values can stand only once. Like-named read-outs stand apart in the source and are kept apart here.
# What was measured:
# [1] = system: S. aureus MN 8; format: cell-based, Staphylococcus aureus
# [2] = physchem; settings: 25 °C, water
# [3] = % reduction per mM Ca added, higher concentrations, Ca (mM) as in Table 2: chloride 75.6, stearate 98.8, lactate 53.1, citrate malate 22.6, glycerate 39.7, gluconate 38.4, α-D-heptagluconate 38.1
# [4] = % reduction per mM Ca added, low concentrations, Ca (mM) as in Table 1: chloride 15.1, stearate 9.9, lactate 8.8, citrate malate 6.8, glycerate 4.0, gluconate 3.8, α-D-heptagluconate 3.8
# [5] = reduction of TSST-1 vs. PBS and BHI control, low concentrations, Ca (mM) added to shake flask: calcium chloride 15.1, calcium stearate 9.9 (solid added directly into the media), calcium lactate 8.8, calcium citrate malate 6.8, calcium glycerate 4.0, calcium gluconate 3.8, calcium α-D-heptagluconate 3.8
# [6] = % reduction per mM Ca added, Ca 4.0 mM added to shake flask
compound,measurement,setting,value
calcium gluconate,% TSST-1 Change (μg/ml/mM) vs. control,[1]; [3],2.5%
same,% TSST-1 Change (μg/ml/mM) vs. control,[1]; [4],21.3%
same,% TSST-1 Change (μg/mL) vs. control,[1]; [5],81%
O=C(O)C(O)CO (racemic) [calcium glycerate],% TSST-1 Change (μg/ml/mM) vs. control,[1]; [6],17.0%
O=C([O-])[C@@H](O)CO.O=C([O-])[C@@H](O)CO.[Ca+2] [calcium L-glycerate],% TSST-1 Change (μg/ml/mM) vs. control,[1]; [6],15.3%
"CC(O)C(=O)[O-].CC(O)C(=O)[O-].[Ca+2] (stereo not drawn) [calcium lactate, reference compound]",% TSST-1 Change (μg/ml/mM) vs. control,[1]; [3],1.7%
same,% TSST-1 Change (μg/ml/mM) vs. control,[1]; [4],5.6%
same,% TSST-1 Change (μg/mL) vs. control,[1]; [5],49%
"[Ca+2].[Cl-].[Cl-] [calcium chloride, reference compound]",% TSST-1 Change (μg/ml/mM) vs. control,[1]; [3],1.1%
same,% TSST-1 Change (μg/ml/mM) vs. control,[1]; [4],2.5%
same,% TSST-1 Change (μg/mL) vs. control,[1]; [5],37%
O=C(O)C(O)CO (stereo not drawn) [calcium glycerate],solubility,[2],349 mM
same,% TSST-1 Change (μg/ml/mM) vs. control,[1]; [3],2.5%
same,% TSST-1 Change (μg/ml/mM) vs. control,[1]; [4],17.0%
same,% TSST-1 Change (μg/mL) vs. control,[1]; [5],68%
O=C([O-])C(O)CO.O=C([O-])C(O)CO.[Ca+2] [calcium D-glycerate],% TSST-1 Change (μg/ml/mM) vs. control,[1]; [6],22.9%
O=C([O-])C(O)[C@H](O)[C@@H](O)[C@H](O)[C@H](O)CO.O=C([O-])C(O)[C@H](O)[C@@H](O)[C@H](O)[C@H](O)CO.[Ca+2] (stereo partly drawn) [calcium α-D-heptagluconate],% TSST-1 Change (μg/mL) vs. control,[1],47%
same,% TSST-1 Change (μg/ml/mM) vs. control,[1],12.5% and 2.6%
calcium citrate malate [reference compound],% TSST-1 Change (μg/ml/mM) vs. control,[1]; [3],3.9%
same,% TSST-1 Change (μg/ml/mM) vs. control,[1]; [4],13.1%
same,% TSST-1 Change (μg/mL) vs. control,[1]; [5],89%
calcium stearate [reference compound],% TSST-1 Change (μg/ml/mM) vs. control,[1]; [3],0.6%
same,% TSST-1 Change (μg/ml/mM) vs. control,[1]; [4],6.6%
same,% TSST-1 Change (μg/mL) vs. control,[1]; [5],65%
